# Columns and labels:
# Format in all cases: in vivo
# common lambsquater [1] = test: Test Example 4: herbicidal effect in foliage treatment; conditions: dose 3.2 g/a, three weeks after application
# From the text: (§1) Test on the Herbicidal Effect in Foliage Treatment
# (§2) Sterilized diluvial soil was put in plastic boxes with a length of 21 cm, a width of 13 cm and a depth of 7 cm, and seeds of barnyardgrass, large crabgrass, giant foxtail, wild oat, blackgrass, velvetleaf, common ragweed, redroot pigweed, common lambsquater, posumbu knotweed, common chickweed, corn, soybean, rice, wheat and sugar beet were sown in spots and covered with an about 1.5 cm-thick soil layer. The boxes were placed in a greenhouse at 25 to 30° C. to grow the plants. After 14 days, emulsifiable concentrates containing compounds of the present invention formulated in accordance with Formulation Example 2 were uniformly applied to the foliage at predetermined doses through a small sprayer after diluted with water. Three weeks after the application, the herbicidal effects against various plants were determined on the same evaluation scale as in Test Example 1.
# (§3) A: barnyardgrass, B: bulrush, C: ducksalad, D: large crabgrass, E: giant foxtail, F: wild oat, G: water foxtail, H: Italian ryegrass, I: velvetleaf, J: common ragweed, K: redroot pigweed, L: common lambsquater, M: posumbu knotweed, N: common chickweed, O: beadstraw, a: transplanted rice, b: corn, c: soybean, d: direct-seeded rice, e: wheat, f: sugar beet.
# (§4) The doses (g/a) represents the amounts in g per 1 are (a) applied after adjustment of concentration adjustment.
# water foxtail [2] = test: as above; conditions: dose 3.2 g/a, three weeks after application
# From the text: as §1, §2, §3, §4
# posumbu knotweed [3] = test: as above; conditions: dose 3.2 g/a, three weeks after application
# From the text: as §1, §2, §3, §4
# Italian ryegrass [4] = test: as above; conditions: dose 3.2 g/a, three weeks after application
# From the text: as §1, §2, §3, §4
# velvetleaf = test: as above; conditions: dose 3.2 g/a, three weeks after application
# From the text: as §1, §2, §3, §4
# redroot pigweed [5] = test: as above; conditions: dose 3.2 g/a, three weeks after application
# From the text: as §1, §2, §3, §4
# large crabgrass [6] = test: as above; conditions: dose 3.2 g/a, three weeks after application
# From the text: as §1, §2, §3, §4
# common chickweed [7] = test: as above; conditions: dose 3.2 g/a, three weeks after application
# From the text: as §1, §2, §3, §4
# barnyardgrass [8] = test: as above; conditions: dose 3.2 g/a, three weeks after application
# From the text: as §1, §2, §3, §4
# giant foxtail [9] = test: as above; conditions: dose 3.2 g/a, three weeks after application
# From the text: as §1, §2, §3, §4
# beadstraw = test: as above; conditions: dose 3.2 g/a, three weeks after application
# From the text: as §1, §2, §3, §4
# common ragweed [10] = test: as above; conditions: dose 3.2 g/a, three weeks after application
# From the text: as §1, §2, §3, §4
# bulrush [11] = test: Test Example 2: herbicidal effects during the vegetation period under submerged conditions; conditions: treatment during the vegetation period under submerged conditions; dose 2.52 g/a
# Protocol: (§5) Test on the Herbicidal Effects on Weeds During the Vegetation Period Under Submerged Conditions
# (§6) Alluvial soil was put in 1/30000-are styrol cups and admixed with water so that it was submerged at a depth of 4 cm. In each cup, seeds of barnyardgrass, bulrush and ducksalad were sown together, and the cups were placed in a greenhouse at 25 to 30° C. to grow the plants. When the barnyardgrass, bulrush and ducksalad reached the 1- or 2-leaf stage, emulsifiable concentrates containing compounds of the present invention formulated in accordance with Formulation Example 2 were applied to the water surfaces at predetermined doses after diluted with water. Three weeks after the application, the herbicidal effects against various plants were determined on the same evaluation scale as in Test Example 1.
# as §3, §4
# barnyardgrass [12] = test: as above; conditions: treatment during the vegetation period under submerged conditions; dose 2.52 g/a
# Protocol: as §5, §6, §3, §4
# ducksalad [13] = test: as above; conditions: treatment during the vegetation period under submerged conditions; dose 2.52 g/a
# Protocol: as §5, §6, §3, §4
# bulrush [14] = test: Test Example 1: herbicidal effects in preemergence treatment under submerged conditions; conditions: dose 2.52 g/a
# From the text: (§7) Test on the Herbicidal Effects in Preemergence Treatment on Weeds Under Submerged Conditions
# (§8) Alluvial soil was put in 1/30000-are styrol cups and admixed with water so that it was submerged at a depth of 4 cm. In each cup, seeds of barnyardgrass, bulrush and ducksalad were sown together, and rice seedlings at the 2.5-leaf stage were transplanted. On the same day as the seeding, emulsifiable concentrates containing compounds of the present invention formulated in accordance with Formulation Example 2 were applied to the water surfaces at predetermined doses after diluted with water. The cups were placed in a greenhouse at 25 to 30° C. to grow the plants. Three weeks after the application, the herbicidal effects against various plants were determined on the following evaluation scale.
# (§9) 5 mortality of 90% or above (nearly complete death)
# (§10) 4 mortality of at least 70% and less than 90%
# (§11) 3 mortality of at least 40% and less than 70%
# (§12) 2 mortality of at least 20% and less than 40%
# (§13) 1 mortality of at least 5% and less than 20%
# (§14) 0 mortality of less than 5% (almost ineffective)
# as §3, §4
# barnyardgrass [15] = test: as above; conditions: dose 2.52 g/a
# From the text: as §7, §8, §9, §10, §11, §12, §13, §14, §3, §4
# ducksalad [16] = test: as above; conditions: dose 2.52 g/a
# From the text: as §7, §8, §9, §10, §11, §12, §13, §14, §3, §4
# transplanted rice = test: Test Example 1: preemergence treatment under submerged conditions, effect on crop; conditions: dose 2.52 g/a
# From the text: as §7, §8, §9, §10, §11, §12, §13, §14, §3, §4
# common lambsquater [17] = test: Test Example 3: herbicidal effects in soil treatment; conditions: dose 3.2 g/a
# From the text: (§15) Test on the Herbicidal Effects in Soil Treatment
# as §2, with “chickweed” for “chickweed,”, “Emulsifiable” for “The boxes were placed in a greenhouse at 25 to 30° C. to grow the plants. After 14 days, emulsifiable”, “soil surfaces” for “foliage”, “dilute” for “diluted”
# as §3, §4
# water foxtail [18] = test: as above; conditions: dose 3.2 g/a
# From the text: as §15
# as §2, with “chickweed” for “chickweed,”, “Emulsifiable” for “The boxes were placed in a greenhouse at 25 to 30° C. to grow the plants. After 14 days, emulsifiable”, “soil surfaces” for “foliage”, “dilute” for “diluted”
# as §3, §4
# posumbu knotweed [19] = test: as above; conditions: dose 3.2 g/a
# From the text: as §15
# as §2, with “chickweed” for “chickweed,”, “Emulsifiable” for “The boxes were placed in a greenhouse at 25 to 30° C. to grow the plants. After 14 days, emulsifiable”, “soil surfaces” for “foliage”, “dilute” for “diluted”
# as §3, §4
# Italian ryegrass [20] = test: as above; conditions: dose 3.2 g/a
# From the text: as §15
# as §2, with “chickweed” for “chickweed,”, “Emulsifiable” for “The boxes were placed in a greenhouse at 25 to 30° C. to grow the plants. After 14 days, emulsifiable”, “soil surfaces” for “foliage”, “dilute” for “diluted”
# as §3, §4
# redroot pigweed [21] = test: as above; conditions: dose 3.2 g/a
# From the text: as §15
# as §2, with “chickweed” for “chickweed,”, “Emulsifiable” for “The boxes were placed in a greenhouse at 25 to 30° C. to grow the plants. After 14 days, emulsifiable”, “soil surfaces” for “foliage”, “dilute” for “diluted”
# as §3, §4
# large crabgrass [22] = test: as above; conditions: dose 3.2 g/a
# From the text: as §15
# as §2, with “chickweed” for “chickweed,”, “Emulsifiable” for “The boxes were placed in a greenhouse at 25 to 30° C. to grow the plants. After 14 days, emulsifiable”, “soil surfaces” for “foliage”, “dilute” for “diluted”
# as §3, §4
# common chickweed [23] = test: as above; conditions: dose 3.2 g/a
# From the text: as §15
# as §2, with “chickweed” for “chickweed,”, “Emulsifiable” for “The boxes were placed in a greenhouse at 25 to 30° C. to grow the plants. After 14 days, emulsifiable”, “soil surfaces” for “foliage”, “dilute” for “diluted”
# as §3, §4
# barnyardgrass [24] = test: as above; conditions: dose 3.2 g/a
# From the text: as §15
# as §2, with “chickweed” for “chickweed,”, “Emulsifiable” for “The boxes were placed in a greenhouse at 25 to 30° C. to grow the plants. After 14 days, emulsifiable”, “soil surfaces” for “foliage”, “dilute” for “diluted”
# as §3, §4
# giant foxtail [25] = test: as above; conditions: dose 3.2 g/a
# From the text: as §15
# as §2, with “chickweed” for “chickweed,”, “Emulsifiable” for “The boxes were placed in a greenhouse at 25 to 30° C. to grow the plants. After 14 days, emulsifiable”, “soil surfaces” for “foliage”, “dilute” for “diluted”
# as §3, §4
# common ragweed [26] = test: as above; conditions: dose 3.2 g/a
# From the text: as §15
# as §2, with “chickweed” for “chickweed,”, “Emulsifiable” for “The boxes were placed in a greenhouse at 25 to 30° C. to grow the plants. After 14 days, emulsifiable”, “soil surfaces” for “foliage”, “dilute” for “diluted”
# as §3, §4
compound,measurement,setting,value
CC1(C(F)(F)F)CC(=O)N(Cc2ccccc2N(C(=O)C2CC2)S(=O)(=O)C(F)(F)F)CO1 (centres unmarked) [II-48],"L: common lambsquater, herbicidal effect",common lambsquater [1],0 (mortality of less than 5% (almost ineffective))
same,"G: water foxtail, herbicidal effect",water foxtail [2],2 (mortality of at least 20% and less than 40%)
same,"M: posumbu knotweed, herbicidal effect",posumbu knotweed [3],2 (mortality of at least 20% and less than 40%)
same,"H: Italian ryegrass, herbicidal effect",Italian ryegrass [4],0 (mortality of less than 5% (almost ineffective))
same,"I: velvetleaf, herbicidal effect",velvetleaf,4 (mortality of at least 70% and less than 90%)
same,"K: redroot pigweed, herbicidal effect",redroot pigweed [5],0 (mortality of less than 5% (almost ineffective))
same,"D: large crabgrass, herbicidal effect",large crabgrass [6],1 (mortality of at least 5% and less than 20%)
same,"N: common chickweed, herbicidal effect",common chickweed [7],3 (mortality of at least 40% and less than 70%)
same,"A: barnyardgrass, herbicidal effect",barnyardgrass [8],4 (mortality of at least 70% and less than 90%)
same,"E: giant foxtail, herbicidal effect",giant foxtail [9],2 (mortality of at least 20% and less than 40%)
same,"O: beadstraw, herbicidal effect",beadstraw,4 (mortality of at least 70% and less than 90%)
same,"J: common ragweed, herbicidal effect",common ragweed [10],2 (mortality of at least 20% and less than 40%)
same,"B: bulrush, herbicidal effect (evaluation scale 0-5)",bulrush [11],5 (mortality of 90% or above (nearly complete death))
same,"A: barnyardgrass, herbicidal effect (evaluation scale 0-5)",barnyardgrass [12],5 (mortality of 90% or above (nearly complete death))
same,"C: ducksalad, herbicidal effect (evaluation scale 0-5)",ducksalad [13],5 (mortality of 90% or above (nearly complete death))
same,"B: bulrush, herbicidal effect (evaluation scale 0-5)",bulrush [14],5 (mortality of 90% or above (nearly complete death))
same,"A: barnyardgrass, herbicidal effect (evaluation scale 0-5)",barnyardgrass [15],5 (mortality of 90% or above (nearly complete death))
same,"C: ducksalad, herbicidal effect (evaluation scale 0-5)",ducksalad [16],5 (mortality of 90% or above (nearly complete death))
same,"a: transplanted rice, effect on crop (evaluation scale 0-5)",transplanted rice,0 (mortality of less than 5% (almost ineffective))
same,"L: common lambsquater, herbicidal effect (evaluation scale 0-5)",common lambsquater [17],0 (mortality of less than 5% (almost ineffective))
same,"G: water foxtail, herbicidal effect (evaluation scale 0-5)",water foxtail [18],5 (mortality of 90% or above (nearly complete death))
same,"M: posumbu knotweed, herbicidal effect (evaluation scale 0-5)",posumbu knotweed [19],3 (mortality of at least 40% and less than 70%)
same,"H: Italian ryegrass, herbicidal effect (evaluation scale 0-5)",Italian ryegrass [20],0 (mortality of less than 5% (almost ineffective))
same,"K: redroot pigweed, herbicidal effect (evaluation scale 0-5)",redroot pigweed [21],0 (mortality of less than 5% (almost ineffective))
same,"D: large crabgrass, herbicidal effect (evaluation scale 0-5)",large crabgrass [22],5 (mortality of 90% or above (nearly complete death))
same,"N: common chickweed, herbicidal effect (evaluation scale 0-5)",common chickweed [23],4 (mortality of at least 70% and less than 90%)
same,"A: barnyardgrass, herbicidal effect (evaluation scale 0-5)",barnyardgrass [24],5 (mortality of 90% or above (nearly complete death))
same,"E: giant foxtail, herbicidal effect (evaluation scale 0-5)",giant foxtail [25],4 (mortality of at least 70% and less than 90%)
same,"J: common ragweed, herbicidal effect (evaluation scale 0-5)",common ragweed [26],4 (mortality of at least 70% and less than 90%)
